Like-named read-outs stand apart in the source and are kept apart here.
What was measured:
[1] = test system: E. coli mL308 225; experiment: In Vitro Anti-Bacterial Activity Assay (MIC), gram negative; type: cell-based; settings: for MIC: Escherichia coli, ML308225, 18 h
[2] = test system: S. aureus RN450; experiment: In Vitro Anti-Bacterial Activity Assay (MIC), gram positive; type: cell-based; settings: for MIC: Staphylococcus aureus, RN450, 18 h
[3] = MIC class, Table 3, read-out: Antibiotic Activity Gram −
[4] = MIC class, Table 3, read-out: Antibiotic Activity Gram +
[5] = MIC class, Table 3 (Continued), read-out: Gram− activity
[6] = MIC class, Table 3 (Continued), read-out: Gram+ activity
[7] = gram negative bacteria, read-out: Antibiotic Activity Gram − (MIC)
[8] = gram positive bacteria, read-out: Antibiotic Activity Gram + (MIC)
[9] = read-out: Antibiotic Activity Gram − (MIC)

## CN(C)[C@@H]1C(O)=C(C(N)=O)C(=O)[C@@]2(O)C(O)=C3C(=O)c4c(O)ccc(C=CC(N)=O)c4C[C@H]3C[C@@H]12 [BO]
[1]; [3]
  MIC: > 4 µg/mL
[2]; [4]
  MIC: > 4 µg/mL

## CC1c2cccc(O)c2C(=O)C(C(=O)O)C1[C@H](O)[C@@H]1CC(=O)C(C(N)=O)=C(O)[C@H]1N(C)C (some centres unmarked)
[1]; [5]
  MIC: > 4 µg/mL
[2]; [6]
  MIC: > 4 µg/mL

## CN(C)[C@H]1C(O)=C(C(N)=O)C(=O)[C@@]2(O)C(O)=C3C(=O)c4c(O)ccc(-c5ncccn5)c4C[C@H]3C[C@@H]12 [PX]
[1]; [3]
  MIC: > 4 µg/mL
[2]; [4]
  MIC: < 4 µg/mL

## COC(=O)C1CCN(CC(=O)Nc2ccc(-c3ccc(O)c4c3C[C@H]3C[C@H]5[C@H](N(C)C)C(O)=C(C(N)=O)C(=O)[C@@]5(O)C(O)=C3C4=O)cc2)CC1
[1]; [7]
  MIC: > 4 µg/mL
[2]; [8]
  MIC: < 4 µg/mL

## CC(=O)CCC(=O)Nc1ccc2c(c1O)C(=O)C1=C(O)[C@]3(O)C(=O)C(C(N)=O)=C(O)[C@@H](N(C)C)[C@@H]3C[C@@H]1C2
[1]; [7]
  MIC: > 4 µg/mL
[2]; [8]
  MIC: > 4 µg/mL

## CN(C)c1cc(CNCCC(F)(F)F)c(O)c2c1C[C@H]1C[C@H]3[C@H](N(C)C)C(O)=C(C(N)=O)C(=O)[C@@]3(O)C(O)=C1C2=O [drawing 3690]
[1]; gram negative bacteria
  Antibiotic Activity Gram − (MIC): ** (compounds with MIC less than or equal to 4 μg/ml are indicated with **)
[2]; gram positive bacteria
  Antibiotic Activity Gram + (MIC): ** (compounds with MIC less than or equal to 4 μg/ml are indicated with **)

## CN(C)c1ccc(O)c2c1C[C@H]1C[C@H]3CC(O)=C(C(N)=O)C(=O)[C@@]3(O)C(O)=C1C2=O
[1]; [7]
  MIC: < 4 µg/mL
[2]; [8]
  MIC: < 4 µg/mL

## CCCCN(CCCC)Cc1cc(N(C)C)c2c(c1O)C(=O)C1=C(O)[C@]3(O)C(=O)C(C(N)=O)=C(O)C(N(C)C)[C@@H]3C[C@@H]1C2 (some centres unmarked) [EZ]
[1]; [3]
  MIC: > 4 µg/mL
[2]; [4]
  MIC: < 4 µg/mL

## CCOC(=O)Nc1cc(N(C)C)c2c(c1O)C(=O)C1=C(O)[C@]3(O)C(=O)C(C(N)=O)=C(O)[C@@H](N(C)C)[C@@H]3C[C@@H]1C2 [drawing 3364]
[1]; gram negative bacteria
  Antibiotic Activity Gram − (MIC): ** (compounds with MIC less than or equal to 4 μg/ml are indicated with **)
[2]; gram positive bacteria
  Antibiotic Activity Gram + (MIC): ** (compounds with MIC less than or equal to 4 μg/ml are indicated with **)

## CCOc1ccc(/C=C2\c3cccc(O)c3C(=O)C3=C(O)[C@]4(O)C(=O)C(C(N)=O)=C(O)[C@@H](N(C)C)[C@@H]4[C@@H](O)[C@@H]32)cc1
[1]; [5]
  MIC: > 4 µg/mL
[2]; [6]
  MIC: < 4 µg/mL

## COC(=O)CCC(=O)Nc1ccc2c(c1O)C(=O)C1=C(O)[C@]3(O)C(=O)C(C(N)=O)=C(O)[C@@H](N(C)C)[C@@H]3C[C@@H]1C2 [IB]
[1]; [3]
  MIC: > 4 µg/mL
[2]; [4]
  MIC: > 4 µg/mL

## CN(C)[C@@H]1C(O)=C(C(N)=O)C(=O)[C@@]2(O)C(O)=C3C(=O)c4c(O)ccc(-c5ccc(CN6CCCC6)o5)c4C[C@H]3C[C@@H]12 [GY]
[1]; [3]
  MIC: < 4 µg/mL
[2]; [4]
  MIC: < 4 µg/mL

## CC(C)COC(=O)NCc1ccc(-c2ccc(O)c3c2C[C@H]2C[C@H]4[C@H](N(C)C)C(O)=C(C(N)=O)C(=O)[C@@]4(O)C(O)=C2C3=O)cc1
[1]; [7]
  MIC: > 4 µg/mL
[2]; [8]
  MIC: < 4 µg/mL

## CN(C)c1cc(NC2CCN(Cc3ccccc3)CC2)c(O)c2c1C[C@H]1C[C@H]3[C@H](N(C)C)C(O)=C(C(N)=O)C(=O)[C@@]3(O)C(O)=C1C2=O [KM]
[1]; [3]
  MIC: > 4 µg/mL
[2]; [4]
  MIC: > 4 µg/mL

## CCOC(=O)CNCc1ccc(OC)c(-c2ccc(O)c3c2C[C@H]2C[C@H]4[C@H](N(C)C)C(O)=C(C(N)=O)C(=O)[C@@]4(O)C(O)=C2C3=O)c1
[1]; [7]
  MIC: < 4 µg/mL
[2]; [8]
  MIC: < 4 µg/mL

## CCC(=O)c1ccc(O)c2c1C[C@H]1C[C@H]3[C@H](N(C)C)C(O)=C(C(N)=O)C(=O)[C@@]3(O)C(O)=C1C2=O [EA]
[1]; [3]
  MIC: < 4 µg/mL
[2]; [4]
  MIC: < 4 µg/mL

## COc1ccc(-c2ccc(O)c3c2C[C@H]2C[C@H]4[C@H](N(C)C)C(O)=C(C(N)=O)C(=O)[C@@]4(O)C(O)=C2C3=O)cc1 [drawing 3310]
[1]; [5]
  MIC: < 4 µg/mL
[2]; [6]
  MIC: < 4 µg/mL

## CN(C)[C@@H]1C(O)=C(C(N)=O)C(=O)[C@@]2(O)C(O)=C3C(=O)c4c(O)ccc(C#Cc5ccccc5F)c4C[C@H]3C[C@@H]12
[1]; [5]
  MIC: < 4 µg/mL
[2]; [6]
  MIC: < 4 µg/mL

## CC(CF)NCc1ccc(O)c2c1C[C@H]1C[C@H]3[C@H](N(C)C)C(O)=C(C(N)=O)C(=O)[C@@]3(O)C(O)=C1C2=O (some centres unmarked)
[1]; [9]
  MIC: > 4 µg/mL
[2]; [8]
  MIC: < 4 µg/mL

## CN(C)c1cc(CNCc2ccccc2F)c(O)c2c1C[C@H]1C[C@H]3[C@H](N(C)C)C(O)=C(C(N)=O)C(=O)[C@@]3(O)C(O)=C1C2=O
[1]; [7]
  MIC: > 4 µg/mL
[2]; [8]
  MIC: < 4 µg/mL

## CN(C)[C@@H]1C(O)=C(C(N)=O)C(=O)[C@@]2(O)C(O)=C3C(=O)c4c(O)ccc(-c5cccc(NC(=O)c6ccno6)c5)c4C[C@H]3C[C@@H]12
[1]; [7]
  MIC: > 4 µg/mL
[2]; [8]
  MIC: < 4 µg/mL

## Cc1noc(C)c1S(=O)(=O)NCc1cc(N(C)C)c2c(c1O)C(=O)C1=C(O)[C@]3(O)C(=O)C(C(N)=O)=C(O)[C@@H](N(C)C)[C@@H]3C[C@@H]1C2
[1]; [7]
  MIC: > 4 µg/mL
[2]; [8]
  MIC: < 4 µg/mL

## CN(C)c1cc(C#CCc2ccccc2)c(O)c2c1C[C@H]1C[C@H]3[C@H](N(C)C)C(O)=C(C(N)=O)C(=O)[C@@]3(O)C(O)=C1C2=O [DQ]
[1]; [3]
  MIC: > 4 µg/mL
[2]; [4]
  MIC: < 4 µg/mL

## COCC(=O)Nc1ccc(-c2ccc(O)c3c2C[C@H]2C[C@H]4[C@H](N(C)C)C(O)=C(C(N)=O)C(=O)[C@@]4(O)C(O)=C2C3=O)cc1
[1]; [7]
  MIC: < 4 µg/mL
[2]; [8]
  MIC: < 4 µg/mL

## CN(C)[C@@H]1C(O)=C(C(N)=O)C(=O)[C@@]2(O)C(O)=C3C(=O)c4c(O)ccc(-c5ccc(NC(=O)OCCF)cc5)c4C[C@H]3C[C@@H]12
[1]; [7]
  MIC: > 4 µg/mL
[2]; [8]
  MIC: < 4 µg/mL

## C[C@H]1c2ccc(NC3CC(C)(C)NC(C)(C)C3)c(O)c2C(=O)C2=C(O)[C@]3(O)C(=O)C(C(N)=O)=C(O)[C@@H](N(C)C)[C@@H]3[C@@H](O)[C@@H]21
[1]; [7]
  MIC: > 4 µg/mL
[2]; [8]
  MIC: < 4 µg/mL

## CC(C)CNCc1cc(N(C)C)c2c(c1O)C(=O)C1=C(O)[C@]3(O)C(=O)C(C(N)=O)=C(O)[C@@H](N(C)C)[C@@H]3C[C@@H]1C2 [drawing 3371]
[1]; gram negative bacteria
  Antibiotic Activity Gram − (MIC): ** (compounds with MIC less than or equal to 4 μg/ml are indicated with **)
[2]; gram positive bacteria
  Antibiotic Activity Gram + (MIC): ** (compounds with MIC less than or equal to 4 μg/ml are indicated with **)

## CN(C)c1cc(CNCC(=O)O)c(O)c2c1C[C@H]1C[C@H]3[C@H](N(C)C)C(O)=C(C(N)=O)C(=O)[C@@]3(O)C(O)=C1C2=O
[1]; [7]
  MIC: > 4 µg/mL
[2]; [8]
  MIC: > 4 µg/mL

## Cc1cnc(N)n1Cc1cc(N(C)C)c2c(c1O)C(=O)C1=C(O)[C@]3(O)C(=O)C(C(N)=O)=C(O)[C@@H](N(C)C)[C@@H]3C[C@@H]1C2 [drawing 3712]
[1]; gram negative bacteria
  Antibiotic Activity Gram − (MIC): * (compounds with an MIC of greater than 4 μg/ml are indicated with *)
[2]; gram positive bacteria
  Antibiotic Activity Gram + (MIC): * (compounds with an MIC of greater than 4 μg/ml are indicated with *)

## CCCCOc1cccc2c1C(=O)C1=C(O)[C@]3(O)C(=O)C(C(N)=O)=C(O)[C@@H](N(C)C)[C@@H]3C[C@@H]1C2
[1]; [7]
  MIC: > 4 µg/mL
[2]; [8]
  MIC: > 4 µg/mL

## CC(=O)c1cc(I)c(O)c2c1C[C@H]1C[C@H]3[C@H](N(C)C)C(O)=C(C(N)=O)C(=O)[C@@]3(O)C(O)=C1C2=O [JW]
[1]; [3]
  MIC: > 4 µg/mL
[2]; [4]
  MIC: > 4 µg/mL

## CONCc1ccc(-c2cc(N(C)C)c3c(c2O)C(=O)C2=C(O)[C@]4(O)C(=O)C(C(N)=O)=C(O)[C@@H](N(C)C)[C@@H]4C[C@@H]2C3)[nH]1
[1]; [7]
  MIC: < 4 µg/mL
[2]; [8]
  MIC: < 4 µg/mL

## CC1c2ccc(-c3ccc4c(c3)OCO4)c(O)c2C(=O)C2=C(O)[C@]3(O)C(=O)C(C(N)=O)=C(O)[C@@H](N(C)C)[C@@H]3[C@@H](O)[C@@H]21 (some centres unmarked)
[1]; [5]
  MIC: < 4 µg/mL
[2]; [6]
  MIC: < 4 µg/mL

## Cc1cc(C(C)(C)C)c(O)c2c1C[C@H]1C[C@H]3[C@H](N(C)C)C(O)=C(C(N)=O)C(=O)[C@@]3(O)C(O)=C1C2=O
[1]; [7]
  MIC: > 4 µg/mL
[2]; [8]
  MIC: < 4 µg/mL

## COCCOC(=O)NCc1cc(N(C)C)c2c(c1O)C(=O)C1=C(O)[C@]3(O)C(=O)C(C(N)=O)=C(O)[C@@H](N(C)C)[C@@H]3C[C@@H]1C2
[1]; [7]
  MIC: > 4 µg/mL
[2]; [8]
  MIC: < 4 µg/mL

## COC1CCN(Cc2cc(N(C)C)c3c(c2O)C(=O)C2=C(O)[C@]4(O)C(=O)C(C(N)=O)=C(O)[C@@H](N(C)C)[C@@H]4C[C@@H]2C3)CC1
[1]; [7]
  MIC: < 4 µg/mL
[2]; [8]
  MIC: < 4 µg/mL

## CN(C)[C@@H]1C(O)=C(C(N)=O)C(=O)[C@@]2(O)C(O)=C3C(=O)c4c(O)ccc(C=CC#N)c4C[C@H]3C[C@@H]12 [NO]
[1]; [3]
  MIC: < 4 µg/mL
[2]; [4]
  MIC: < 4 µg/mL

## COc1ccc(CN2CCCC2)cc1-c1ccc(O)c2c1C[C@H]1C[C@H]3C(N(C)C)C(O)=C(C(N)=O)C(=O)[C@@]3(O)C(O)=C1C2=O (some centres unmarked) [ED]
[1]; [3]
  MIC: < 4 µg/mL
[2]; [4]
  MIC: < 4 µg/mL

## CC(CF)N(C)Cc1cc(N(C)C)c2c(c1O)C(=O)C1=C(O)[C@]3(O)C(=O)C(C(N)=O)=C(O)[C@@H](N(C)C)[C@@H]3C[C@@H]1C2 (some centres unmarked)
[1]; [9]
  MIC: > 4 µg/mL
[2]; read-out: Antibiotic Activity Gram + (MIC)
  MIC: < 4 µg/mL

## COc1ccc(CNCc2cccc(C)c2)cc1-c1ccc(O)c2c1C[C@H]1C[C@H]3C(N(C)C)C(O)=C(C(N)=O)C(=O)[C@@]3(O)C(O)=C1C2=O (some centres unmarked) [HO]
[1]; [3]
  MIC: < 4 µg/mL
[2]; [4]
  MIC: < 4 µg/mL

## CN(C)c1cc(CN2CCCC2)c(O)c2c1C[C@H]1C[C@H]3[C@H](N(C)C)C(O)=C(C(N)=O)C(=O)[C@@]3(O)C(O)=C1C2=O
[1]; [7]
  MIC: > 4 µg/mL
[2]; [8]
  MIC: < 4 µg/mL

## CN(C)[C@@H]1C(O)=C(C(N)=O)C(=O)[C@@]2(O)C(O)=C3C(=O)c4c(O)c(CN5CCOCC5)cc(-c5ccoc5)c4C[C@H]3C[C@@H]12 [QA]
[1]; [3]
  MIC: < 4 µg/mL
[2]; [4]
  MIC: < 4 µg/mL

## CN(C)[C@@H]1C(O)=C(C(N)=O)C(=O)[C@@]2(O)C(O)=C3C(=O)c4c(O)ccc(-c5cnc(N)nc5)c4C[C@H]3C[C@@H]12 [PF]
[1]; [3]
  MIC: < 4 µg/mL
[2]; [4]
  MIC: < 4 µg/mL
